Several values for one entry are separate records, joined by “and”; a condition that tells them apart may be missing. Equal entries are not always repeated. Residues, ends and D or L forms follow the SMILES beside them. *: point of attachment. Cbz = O=C(OCc1ccccc1)*
Tests used:
[1] = biological target: T1, proteasome (chymotrypsin-like activity) of MNT1 cells (Homo sapiens, UniProt P28074); experiment: Proteasome LLVY (chymotrypsin-like) activity assay on lyzates of treated MNT1 cells; assay type: cell-based; settings: for chymotrypsin-like peptidase activity of the proteasome, change in words: 72 hours after addition, MNT-1 melanocytes, FIG. 1A; for Proteasome activity at 72 hours, Chymotrypsin-like: MNT1 cells lyzed 72 hours after treatment, palmitic or linoleic acid 25 μM, Phaeodactylum 5 μg/ml, Mg132 120 nM where stated
T1 construct: introduce in duplicate a fixed volume of cell lyzate; endogenous in cells; host or cells: MNT1 human melanocyte line (lysate)
T1 sequence (P28074 60-263): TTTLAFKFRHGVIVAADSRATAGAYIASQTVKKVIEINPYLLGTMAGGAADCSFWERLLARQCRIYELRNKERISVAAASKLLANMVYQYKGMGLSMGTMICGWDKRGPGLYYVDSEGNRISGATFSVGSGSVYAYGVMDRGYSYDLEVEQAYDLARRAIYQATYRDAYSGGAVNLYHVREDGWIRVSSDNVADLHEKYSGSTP
Protocol: 2.1 Treatment of MNT1 Cells (Human Melanocyte Cell Lines) in Order to Assay the Proteasome and Tyrosinase Activities MNT1, 10^6 cells/dish 35 mm in diameter, in triplicate
Treatment on D1 • Linoleic acid 25 μM • Palmitic acid 25 μM • Phaeodactylum 5 μg/ml +1% BSA+Vitamin E 50 μM+Vitamin C 1 mM • Linoleic acid 25 μM • Palmitic acid 25 μM • Phaeodactylum 5 μg/ml Stirring with a magnetic bar at 37° C. for 1 hour • 2nd treatment on D4 +Cycloheximide 1 μg/ml (protein synthesis inhibitor)
+120 nM Mg132 for the assay of the tyrosinase activity. • Preparation of the lyzates after 4 hours 2 rinses with PBS (phosphate-buffered saline)
On a bed of ice; recovery in 150 μl of lysis buffer by scraping.
Freezing at […]. • Protein assay via the Bradford method • Proteasome activity assay The cells are rinsed twice with PBS and each peptidase activity of the proteasome is then determined by using a fluorogenic peptide substrate specific for each of the activities, in the presence and in the absence of a specific proteasome inhibitor, MG 132 (Leu-Leu-Leucinal). The peptide substrate products are the following: Leu-Leu-Val-Tyr-amc (LLVY-amc) for the chymotrypsin-like activity, Leu-Leu-Glu-na (LLE-na) for the post-glutamic hydrolase activity and Leu-Ser-Thr-Arg-amc (LSTR-amc) for the trypsin-like activity. The principle of the assay consists in monitoring over time the increase in fluorescence due to the release of the fluorophores aminomethylcoumarin or β-naphthylamine from the fluorogenic peptides. […]
a) LLVY activity (chymotrypsin-like) a.1—Principle • Proteasome (LLVY activity • (chymotrypsin-like)) N-Succinyl-LLVY-MCA→N-Succinyl-LLVY+MCA fluorescent Reading with a spectrofluorimeter at an excitation wavelength of 350 nm and an emission wavelength of 440 nm.
The process is performed as follows: • Into a 96-well plate, introduce in duplicate a fixed volume of cell lyzate (determined from the lowest protein concentration of the samples, which should correspond to 20 μg of protein) and make up to 100 μl with TRIS buffer. • Add 100 μl of LLVY-MCA substrate prediluted to 25 μM in the TRIS buffer (12.5 μM final). • take the spectrofluorimeter readings at an excitation wavelength of 355 nm and an emission wavelength of 460 nm with a gain of 40, every 2 minutes for 30 minutes.
The raw results are expressed in F.U./minute, F.U. denoting the values supplied by the machine, expressed in fluorescence units.
The assay is performed on 200 μl of reaction volume containing a volume V of cell lyzate set as a function of the protein concentrations of the lyzates.
From the calibration range, the activity may be expressed as follows, in pmol of MCA released/minute/mg of protein: […]
For the assay of the proteasome activities, the cells were lyzed at 72 hours after the cell treatment, and the protein concentration was determined.

[2] = test system: tyrosinase in MNT-1 melanocytes; experiment: Anti-tyrosinase western blot of treated MNT1 cells, bands quantified; assay type: cell-based, human; settings: for Quantification of tyrosinase at 24 hours / Quantification of tyrosinase at 72 hours: western blot bands, control = 100 %, palmitic or linoleic acid 25 μM, Phaeodactylum 5 μg/ml, Mg132 120 nM where stated; for Quantification of tyrosinase at 24 hours: MNT1 lyzed at 24 hours; for Quantification of tyrosinase at 72 hours: MNT1 lyzed at 72 hours; for amount of tyrosinase, change in words: 24 hours or 72 hours after treatment of MNT-1 melanocytes, FIGS. 4A and 4B
Protocol: 2.2 Treatment of MNT1 in Order to Assay the Proteasome, the Ubiquitin Proteins and the Tyrosinase by Western Blotting
10^6 MNT1 cells/dish 35 mm in diameter, in quadruplicate
Treatment on D1 • Linoleic acid 25 μM • Palmitic acid 25 μM • Phaeodactylum 5 μg/ml
+1% bovine serum albumin (BSA)+Vitamin E (Vitamin E) 50 μM+Vitamin C (Vitamin C) 1 mM • Linoleic acid 25 μM • Palmitic acid 25 μM • Phaeodactylum 5 μg/ml
Preparation of the Lyzates on D2, D3 and D4
Recovery of the cell lawn in 150 μl of Laemmli 2× buffer+1% DTT (10 mM) by scraping.
Electrophoresis of the proteins is performed in a polyacrylamide minigel 1 mm to […] thick, under denaturing and reducing conditions, in batch buffer according to the Laemmli method (1970). The gels containing 12% T, 2.7% C allow separation of the low molecular weight proteins ranging from 20 to 120 kDa. The gels containing 8% T; 2.7% C allow separation of the high molecular weight proteins from 35 to 250 kDa.
Next, this membrane is placed in contact with the primary antibody diluted to the optimum concentration in PBS-T with or without 5% milk (m/v) depending on the antibody, for 1 hour with stirring at room temperature or overnight at 4° C.
Under the action of peroxidase and an amplifier, the luminol is oxidized and goes into a transient excited state. Return to the ground state takes place by emission of photons, which strike an autoradiography film placed on the membrane.
The bands are quantified by means of the Gels Analysts 3.01 software.
Starting with cell extracts of MNT-1 melanocytes cultured under these various conditions, with the protocols defined in the “Materials and methods” section, the effects of the extracts of the alga Phaeodactylum tricornutum on the amount of tyrosinase and of its activity were characterized.

[3] = test system: tyrosinase of MNT-1 melanocytes; experiment: Measurement of the tyrosinase (dopa-oxidase) activity in lyzates of treated MNT1 cells; assay type: cell-based, human; settings: for Tyrosinase activity at 72 hours: dopa-oxidase activity at 475 nm, MNT1 lyzed 72 hours after treatment, palmitic or linoleic acid 25 μM, Phaeodactylum 5 μg/ml, Mg132 120 nM where stated
Protocol: 2.1D: Measurement of the tyrosinase activity
The assay is based on measuring the dopa-oxidase activity of tyrosinase. The principle of the assay is based on the detection of dopachrome, which absorbs at 475 nm on FLUOstar (BMG)
Materials: • Lysis buffer • Substrate: L-DOPA (Sigma, D-9628, MW 197.2) at 10 mM in PBS, prepared extemporaneously due to the autoxidation of L-Dopa.
Human melanocytes in culture were treated with 25 μM of linoleic acid (±120 nM Mg132) or 25 μM of palmitic acid (±120 nM Mg132) or 5 μg/ml of Phaeodactylum (±120 nM Mg132) in MNT1 medium containing 1% BSA, 50 μM vitamin E and 1 mM vitamin C. The melanocytes were recovered and lyzed 72 hours after treatment. 50 μg of extract are then incubated with 1 mM of […] for one hour at 37° C. Measurement of the tyrosinase activity is performed at 475 nm every 2 minutes using a microplate reader thermostatically maintained at 37° C.
The Dopa-oxidase activity is obtained as OD/min/mg of protein. The blank is prepared with lysis buffer in the presence of L-DOPA.

Row | Structure (SMILES) | chymotrypsin-like peptidase activity of the proteasome, change in words [1] | Proteasome activity at 72 hours, Chymotrypsin-like [1] [pmol/min/mg] | Quantification of tyrosinase at 24 hours [2] | Quantification of tyrosinase at 72 hours [2] | Tyrosinase activity at 72 hours [3] [OD/min] | amount of tyrosinase, change in words [2] | tyrosinase activity, change in words ([3]; 72 hours after treatment of MNT-1 melanocytes, FIG. 5)
1 | CCCCCCCCCCCCCCCC(=O)O [Palmitic acid] | reduced | 3 ± 0.37 | 135% and 127% | 62% and 88% | 18.75 ± 1.9 | – | –
2 | CC(C)C[C@@H](C=O)NC(=O)[C@H](CC(C)C)NC(=O)[C@H](CC(C)C)NC(=O)OCc1ccccc1 [Control + Mg132, Z-Leu-Leu-Leu-CHO] (Cbz-Leu-Leu-Leu-aldehyde) | – | 3 ± 0.3 | 100% | 100% | 18.35 ± 1.55 | this decrease may be reversed | –
3 | CCCCC/C=C\C/C=C\CCCCCCCC(=O)O [Linoleic acid] | increase and do so significantly | 6.3 ± 0.37 | 75% and 51% | 13% and 22% | 9.65 ± 2 | significant decrease | significant decrease

Source: patent publication US8372408B2, “Use of Phaeodactylum algae extract for depigmenting the skin” (LVMH Recherche, priority 2007, dated 2013)
